Assay results taken from patent US5744450A, “GnRH analogs” (The Salk Institute for Biological Studies, priority 1995, dated 1998).

System: LH release

Structure (SMILES): CCNC(=O)[C@@H]1CCCN1C(=O)[C@H](CCCNC(=N)N)NC(=O)[C@H](CC(C)C)NC(=O)[C@@H](Cc1ccc(Nc2n[nH]c(N)n2)cc1)NC(=O)[C@H](Cc1ccc(O)cc1)NC(=O)[C@H](CO)NC(=O)[C@H](Cc1c[nH]c2ccccc12)NC(=O)[C@H](Cc1c[nH]cn1)NC(=O)[C@@H]1CCC(=O)N1 [Peptide 130A, pGlu-His-Trp-Ser-Tyr-D-Aph(3-amino-1,2,4-triazole)-Leu-Arg-Pro-NHCH2 CH3]
- potency relative to native GnRH: about 79 times that of native GnRH
